Assay results published in patent US20210401859A1, “METHODS OF TREATING CANCER IN BIOMARKER-IDENTIFIED PATIENTS WITH NON-COVALENT INHIBITORS OF CYCLIN-DEPENDENT KINASE 7 (CDK7)” (Syros Pharmaceuticals, Inc., priority 2018, published 2021).

Key:
[1] = test system: ST390 (modeling pancreatic ductal adenocarcinoma (PDAC)); test: TGI in PDAC PDX model ST390; type: in vivo, NOD/SCID mice; conditions: 6 mg/kg QD, PO, vehicle ~1,250 mm^3
Description: In the PDAC model, Compound 101 was orally administered to tumor-bearing NOD/SCID mice at 6 mg/kg QD. […] The % regression was calculated as: (Mean TV Compound 101 @ EOT)/(Mean TV Compound 101 @ Day 0)×100. The same calculations were used for end of study (day 42).

[2] = test system: BR5010, LU5178, OV15398 PDX models; test: TGI in PDX models BR5010 (TNBC), LU5178 (SCLC), OV15398 (HGSOC); type: in vivo, NOD/SCID mice; conditions: TNBC 10 mg/kg QD or 5 mg/kg BID, HGSOC 3 mg/kg BID, PO 21 days, 21 days follow-up
[3] = test system: 12 PDX models (SCLC, TNBC, HGSOC); test: TGI and tolerability in 12 PDX models of SCLC, TNBC and HGSOC; type: in vivo
[4] = Plasma exposure on repeated daily dosing in mice; type: in vivo; conditions: repeated daily dosing at therapeutic doses in mice (1-6 mg/kg)
[5] = test system: ovarian and breast tumor xenografts; test: Daily oral dosing in ovarian and breast tumor xenografts; type: in vivo

In the case of `CC1(C)CC[C@H](Nc2ncc(C(F)(F)F)c(-c3c[nH]c4c(P(C)(C)=O)c(C#N)ccc34)n2)CN1` [Compound 101, (S)-7-(dimethylphosphoryl)-3-(2-((6,6-dimethylpiperidin-3-yl)amino)-5-(trifluoromethyl)pyrimidin-4-yl)-1H-indole-6-carbonitrile], the “tumor volume at day 21” value [1] is reported as “about 250 mm^3”, the “TGI (in words)” value [2] is reported as “deep and sustained TGI, including regressions” and the “TGI at the end of the 21-day dosing period, all models” value ([3]; 6 or 10 mg/kg QD or 3 or 5 mg/kg BID PO, all 12 models) is reported as “at least 50%”. For the same molecule, the “body weight loss / tolerability” value ([3]; all once-daily doses tested, tumor-bearing mice) was “no evident body weight loss”, the “tumor regrowth after treatment discontinuation” value ([3]; subset 7/12 models, 21 days after treatment discontinuation) was “no evidence of tumor regrowth” and the “TGI of deep responses in a subset of models” value ([3]; subset of models (58%, 7/12), TGI or regression) was greater than 95%. The plasma exposures [4] was “dose proportional without accumulation”, the “pharmacodynamic responses in xenograft tumor tissue” value ([5]; correlated with TGI) was “rapid (4 hours) and sustained (24 hours) dose-dependent pharmacodynamic responses” and the “TGI (in words)” value ([5]; daily oral dosing) was “dose-dependent TGI”. For the same molecule, the “lowest dose at which tumor regression was observed” value ([5]; daily oral dosing) was “one-fifth of MTD”.
